Assay [1] has as its target T1, Endoribonuclease toxin MazF (Escherichia coli K-12, UniProt P0AE70).
T1 sequence (P0AE70 whole entry): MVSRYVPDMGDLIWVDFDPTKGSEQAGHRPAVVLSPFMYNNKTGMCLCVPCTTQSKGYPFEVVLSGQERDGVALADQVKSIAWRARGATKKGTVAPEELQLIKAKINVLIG
As to the kind of experiment: fluorescent RNA oligo signal without MazF, dose response, counter-screen for MazEF activator project, biochemical, fluorescence, single-stranded RNase substrate (AID 588502). The class given is functional. On the technique in general: Counterscreens check selectivity or assay interference.

Assay [2] deals with T2, RNA-binding protein pos-1 (Caenorhabditis elegans, UniProt G5EF15).
T2 sequence (G5EF15 whole entry): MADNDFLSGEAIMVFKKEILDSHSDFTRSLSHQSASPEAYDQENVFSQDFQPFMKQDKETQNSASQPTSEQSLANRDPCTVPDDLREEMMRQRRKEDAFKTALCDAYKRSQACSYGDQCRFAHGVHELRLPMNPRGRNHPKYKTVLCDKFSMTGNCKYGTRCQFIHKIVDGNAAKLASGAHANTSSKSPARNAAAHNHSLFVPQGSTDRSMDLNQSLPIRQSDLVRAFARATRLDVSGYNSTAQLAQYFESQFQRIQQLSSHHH
Kind of assay: inhibitors of POS-1/mex-3 RNA binding, dose response, biochemical, fluorescence polarization (AID 1964).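 Note: purified POS-1 fused to maltose binding protein made in E. coli; potency of compounds blocking POS-1 binding to fluorescent RNA.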 Background: Fluorescence polarisation rises when a labelled molecule tumbles more slowly, as on binding a larger partner.

Assay [3] deals with T1, Endoribonuclease toxin MazF. Kind of assay: MazF toxin RNase activators, dose response, biochemical, fluorescence, single-stranded RNA substrate, uHTS hits (AID 588481). The class given is functional.
Another assay concerns the target T3, Protein RecA (Mycobacterium tuberculosis, UniProt P9WHJ3).
T3 sequence (P9WHJ3 whole entry): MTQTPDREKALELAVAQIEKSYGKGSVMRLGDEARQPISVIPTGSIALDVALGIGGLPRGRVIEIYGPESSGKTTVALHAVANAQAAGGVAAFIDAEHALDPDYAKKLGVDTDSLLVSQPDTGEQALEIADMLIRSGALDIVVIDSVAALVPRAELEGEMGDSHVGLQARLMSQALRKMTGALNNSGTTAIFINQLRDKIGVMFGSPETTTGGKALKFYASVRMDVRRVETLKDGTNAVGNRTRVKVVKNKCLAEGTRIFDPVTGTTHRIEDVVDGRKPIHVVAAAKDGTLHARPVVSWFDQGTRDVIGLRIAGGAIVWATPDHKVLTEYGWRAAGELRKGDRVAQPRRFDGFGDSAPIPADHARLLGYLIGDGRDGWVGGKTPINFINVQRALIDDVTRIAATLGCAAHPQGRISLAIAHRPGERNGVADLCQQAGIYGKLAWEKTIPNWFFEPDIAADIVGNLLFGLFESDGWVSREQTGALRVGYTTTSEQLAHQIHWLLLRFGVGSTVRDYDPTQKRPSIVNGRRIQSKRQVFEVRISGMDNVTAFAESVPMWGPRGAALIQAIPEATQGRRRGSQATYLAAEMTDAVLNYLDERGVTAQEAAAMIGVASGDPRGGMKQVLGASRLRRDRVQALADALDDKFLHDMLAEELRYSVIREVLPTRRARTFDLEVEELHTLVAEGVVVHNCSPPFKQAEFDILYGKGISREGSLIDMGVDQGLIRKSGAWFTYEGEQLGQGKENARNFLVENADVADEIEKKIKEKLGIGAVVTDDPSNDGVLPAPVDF
As to the kind of experiment: Fluorescence Cell-Free Homogeneous Dose Retest to Identify Inhibitors of RecA-Intein Splicing Activity. [Related pubchem assays (depositor defined):AID2097, AID2223, AID489010, AID492950]. The class given is functional.

Assay [4] has as its target T4, Histone-lysine N-methyltransferase NSD2 (Homo sapiens, UniProt O96028).
T4 sequence (O96028 whole entry): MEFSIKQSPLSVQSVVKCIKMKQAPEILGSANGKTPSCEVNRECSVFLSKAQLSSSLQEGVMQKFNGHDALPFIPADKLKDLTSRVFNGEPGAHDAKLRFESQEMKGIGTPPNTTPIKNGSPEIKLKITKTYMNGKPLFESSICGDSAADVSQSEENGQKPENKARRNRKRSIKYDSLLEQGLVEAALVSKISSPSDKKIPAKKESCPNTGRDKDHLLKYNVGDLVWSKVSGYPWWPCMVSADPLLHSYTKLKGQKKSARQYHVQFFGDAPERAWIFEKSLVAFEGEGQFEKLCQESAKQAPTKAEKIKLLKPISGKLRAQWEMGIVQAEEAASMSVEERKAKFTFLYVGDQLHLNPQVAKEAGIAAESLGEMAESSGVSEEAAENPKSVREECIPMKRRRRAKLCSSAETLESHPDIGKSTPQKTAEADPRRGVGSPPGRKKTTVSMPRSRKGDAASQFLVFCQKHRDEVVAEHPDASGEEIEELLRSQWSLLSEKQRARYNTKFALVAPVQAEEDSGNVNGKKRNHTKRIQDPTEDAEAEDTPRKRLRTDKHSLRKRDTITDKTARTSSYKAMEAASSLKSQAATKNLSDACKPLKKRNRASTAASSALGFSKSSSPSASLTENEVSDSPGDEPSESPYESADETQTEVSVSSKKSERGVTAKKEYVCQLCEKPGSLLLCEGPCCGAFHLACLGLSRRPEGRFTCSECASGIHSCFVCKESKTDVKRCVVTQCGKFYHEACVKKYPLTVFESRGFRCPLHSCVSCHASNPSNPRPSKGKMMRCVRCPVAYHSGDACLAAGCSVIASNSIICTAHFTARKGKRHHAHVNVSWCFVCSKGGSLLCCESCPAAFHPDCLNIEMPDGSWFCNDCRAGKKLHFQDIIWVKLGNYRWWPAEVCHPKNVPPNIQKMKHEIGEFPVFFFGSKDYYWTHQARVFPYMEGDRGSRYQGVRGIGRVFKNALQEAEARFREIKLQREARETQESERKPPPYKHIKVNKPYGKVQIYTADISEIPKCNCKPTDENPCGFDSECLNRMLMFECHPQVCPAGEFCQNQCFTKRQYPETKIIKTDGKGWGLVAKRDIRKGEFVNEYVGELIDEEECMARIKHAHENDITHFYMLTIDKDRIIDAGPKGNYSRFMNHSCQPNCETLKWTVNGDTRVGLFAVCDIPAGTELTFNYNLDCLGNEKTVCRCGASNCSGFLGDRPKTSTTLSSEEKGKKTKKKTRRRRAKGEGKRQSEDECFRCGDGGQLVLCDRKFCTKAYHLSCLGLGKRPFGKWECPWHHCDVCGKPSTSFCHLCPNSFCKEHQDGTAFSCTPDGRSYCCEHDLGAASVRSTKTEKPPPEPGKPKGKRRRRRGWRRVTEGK
The class given is biochemical.

Calls of active or inactive are those of the source.

As to `Oc1ccc(/C=N/NC(=S)Nc2cccnc2)c(O)c1O`, the results for the EC50 in assay [1], in assay [2] and in assay [3] were > 99 µM (inactive), 71.4 µM (active) and > 99 µM (inactive), respectively.
As for `COC(=O)c1ccc(-c2ccc(C(c3c(C)[nH][nH]c3=O)c3c(C)[nH][nH]c3=O)o2)cc1`, the 50% effective concentration (EC50) – broadly, the concentration giving half of the maximal effect – on Protein RecA was 0.348 µM (active). In addition, the half-maximal activity concentration (AC50) – broadly, the concentration at which the activity in the assay is half-maximal – in assay [4] was 17.8 µM (active).
